Values quoted from earlier work as cited in patent US6462026B1, “Bicyclic leucomycins” (Enanta Pharmaceuticals, Inc., priority 2001, dated 2002).
Where two headings read alike, the source gives them in different places.

What was measured:
[1] = parent compound rokitamycin
[2] = metabolites isolated from urine and plasma of adults given oral josamycin
[3] = system: Mycoplasma spp.
[4] = system: Gram-positive bacteria
[5] = dogs; compared with other 3″-O-acyl derivatives of leucomycin A5
[6] = monkeys; compared with other 3″-O-acyl derivatives of leucomycin A5
[7] = system: Gram-negative bacteria; settings: relative to leucomycin A5, josamycin and midecamycin

4″-debutyryl leucomycin A5 [Lecomycin V]
in vitro potency relative to the parent compound [1]: one-tenth

5-hydroxyjosamycin
antimicrobial activity [2]: poor antimicrobial activity

CCC(=O)O[C@H]1[C@H](C)O[C@@H](O[C@H]2[C@H](N(C)C)[C@@H](O)[C@H](O[C@H]3[C@@H](CC=O)C[C@@H](C)[C@@H](O)/C=C/C=C/C[C@@H](C)OC(=O)C[C@@H](O)[C@@H]3OC)O[C@@H]2C)C[C@@]1(C)O [Leucomycin A7]
in vitro potency relative to the parent compound [1]: one-half

COC1C(O)CC(=O)OC(C)CC=CC=CC(=O)C(C)CC(CC=O)C1OC1OC(C)C(OC2CC(C)(O)C(OC(=O)CC(C)C)C(C)O2)C(N(C)C)C1O (centres unmarked) [Niddamycin]
antibacterial activity in vitro [3]: good antibacterial activity | antibacterial activity in vitro [4]: good antibacterial activity

COC1C(OC(C)=O)CC(=O)OC(C)CC=CC=CC(O)C(C)CC(CC=O)C1OC1OC(C)C(OC2CC(C)(O)C(O)C(C)O2)C(N(C)C)C1O (centres unmarked) [desisovaleryl josamycin]
antimicrobial activity [2]: inactive

CCCC(=O)O[C@H]1[C@H](C)O[C@@H](O[C@H]2[C@H](N(C)C)[C@@H](O)[C@H](O[C@H]3[C@@H](CC=O)C[C@@H](C)[C@@H](O)/C=C/C=C/C[C@@H](C)OC(=O)C[C@@H](O)[C@@H]3OC)O[C@@H]2C)C[C@@]1(C)OC(=O)CC [rokitamycin, 3″-O-propionyl leucomycin A5]
serum levels [5]: highest serum levels | serum levels [6]: highest serum levels | in vitro activity against Gram-negative bacteria [7]: twice as high

demycarosyl josamycin
antimicrobial activity [2]: inactive

β-hydroxyisovaleryl josamycin
antimicrobial activity [2]: poor antimicrobial activity
